Reference: ChEMBL document CHEMBL1148690, “Binding of ring-substituted indole-3-acetic acids to human serum albumin” (Bioorg Med Chem, 2007)
Each block holds one compound with its values, some of them ahead of it.

How the values were obtained:
Albumin = Albumin (Homo sapiens, UniProt P02768); test: Binding affinity to human serum albumin; conditions: isolated protein
[1] = Octanol-water partition coefficient, log Kow of the compound

Albumin, sequence (P02768 whole entry): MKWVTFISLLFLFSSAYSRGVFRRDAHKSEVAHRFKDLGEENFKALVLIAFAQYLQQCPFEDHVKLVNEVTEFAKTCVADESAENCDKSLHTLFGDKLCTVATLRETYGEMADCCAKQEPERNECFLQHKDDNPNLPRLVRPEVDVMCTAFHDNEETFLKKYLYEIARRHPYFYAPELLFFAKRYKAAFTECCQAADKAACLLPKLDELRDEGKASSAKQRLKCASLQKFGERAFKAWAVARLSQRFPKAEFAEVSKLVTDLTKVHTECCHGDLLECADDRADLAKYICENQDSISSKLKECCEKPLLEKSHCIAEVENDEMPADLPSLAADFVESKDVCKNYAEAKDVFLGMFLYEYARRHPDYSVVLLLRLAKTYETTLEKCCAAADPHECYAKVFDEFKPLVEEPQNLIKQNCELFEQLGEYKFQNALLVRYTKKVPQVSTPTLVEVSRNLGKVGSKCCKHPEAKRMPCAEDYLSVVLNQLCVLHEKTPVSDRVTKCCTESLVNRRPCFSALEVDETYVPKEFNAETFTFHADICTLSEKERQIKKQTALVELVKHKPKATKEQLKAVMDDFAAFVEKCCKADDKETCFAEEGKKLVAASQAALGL

Structure (SMILES): CCc1[nH]c2ccccc2c1CC(=O)O
- logKA (Albumin): 0.031
- logP [1]: 2.09

Structure (SMILES): O=C(O)Cc1c[nH]c2c(Cl)cc(Cl)cc12
- logKA (Albumin): 0.983
- logP [1]: 3.42

Structure (SMILES): CCCc1ccc2[nH]cc(CC(=O)O)c2c1
- logKA (Albumin): 0.809
- logP [1]: 3.21

Structure (SMILES): Cc1cccc2c(CC(=O)O)c[nH]c12
- logKA (Albumin): 0.288
- logP [1]: 1.95

Structure (SMILES): O=C(O)Cc1c[nH]c2ccc(Cl)c(Cl)c12
- logKA (Albumin): 0.799
- logP [1]: 2.92

Structure (SMILES): O=C(O)Cc1c[nH]c2c(Cl)ccc(Cl)c12
- logKA (Albumin): 0.84
- logP [1]: 3.02

Structure (SMILES): O=C(O)Cc1c[nH]c2cccc(Cl)c12
- logKA (Albumin): 0.458
- logP [1]: 2.13

Structure (SMILES): O=C(O)Cc1c[nH]c2ccc(Cl)cc12
- logKA (Albumin): 0.646
- logP [1]: 2.38

Structure (SMILES): Cc1[nH]c2ccccc2c1CC(=O)O
- logKA (Albumin): -0.04
- logP [1]: 1.72

Structure (SMILES): O=C(O)Cc1c[nH]c2ccc(OCc3ccccc3)cc12
- logP [1]: 3.2

Structure (SMILES): O=C(O)Cc1c[nH]c2c(F)cccc12
- logKA (Albumin): 0.247
- logP [1]: 1.81

Structure (SMILES): O=C(O)Cc1c[nH]c2cc(Cl)c(Cl)cc12
- logKA (Albumin): 1.436
- logP [1]: 3.2

Structure (SMILES): O=C(O)Cc1c[nH]c2ccc(O)cc12
- logKA (Albumin): -0.125
- logP [1]: 0.74

Structure (SMILES): CCCCc1ccc2[nH]cc(CC(=O)O)c2c1
- logKA (Albumin): 1.05
- logP [1]: 3.89

Structure (SMILES): O=C(O)Cc1c[nH]c2cc(F)ccc12
- logKA (Albumin): 0.308
- logP [1]: 1.74

Structure (SMILES): O=C(O)Cc1c[nH]c2cc(Cl)cc(Cl)c12
- logKA (Albumin): 1.082
- logP [1]: 3.29

Structure (SMILES): O=C(O)Cc1c[nH]c2ccc(F)cc12
- logKA (Albumin): 0.261
- logP [1]: 1.72

Structure (SMILES): COc1ccc2[nH]cc(CC(=O)O)c2c1
- logKA (Albumin): 0.185
- logP [1]: 1.23

Structure (SMILES): COc1ccc2[nH]c(C)c(CC(=O)O)c2c1 [DESCHLOROBENZOYL INDOMETHACIN]
- logKA (Albumin): 0.228
- logP [1]: 2.14

Structure (SMILES): O=C(O)Cc1c[nH]c2ccccc12 [INDOLE-3-ACETIC ACID]
- logKA (Albumin): 0.102
- logP [1]: 1.42

Now from value to compound:

- logKA (Albumin): 0.155
- logP [1]: 1.84
Structure (SMILES): Cc1cccc2[nH]cc(CC(=O)O)c12

- logKA (Albumin): 0.292
- logP [1]: 2.34
Structure (SMILES): CCOC(=O)Cc1c[nH]c2ccccc12

- logKA (Albumin): 0.689
- logP [1]: 1.96
Structure (SMILES): Cc1ccc2c(CC(=O)O)c[nH]c2c1

- logKA (Albumin): 0.623
- logP [1]: 2.32
Structure (SMILES): O=C(O)Cc1c[nH]c2c(Cl)cccc12

- logKA (Albumin): 1.044
- logP [1]: 2.56
Structure (SMILES): CCc1ccc2c(CC(=O)O)c[nH]c2c1

- logKA (Albumin): -0.314
- logP [1]: 0.45
Structure (SMILES): O=C(O)Cc1c[nH]c2ncccc12

- logKA (Albumin): 0.15
- logP [1]: 2.56
Structure (SMILES): CCCc1[nH]c2ccccc2c1CC(=O)O

- logKA (Albumin): 0.393
- logP [1]: 2.33
Structure (SMILES): CCc1cccc2[nH]cc(CC(=O)O)c12

- logKA (Albumin): 0.49
- logP [1]: 2.54
Structure (SMILES): CCc1ccc2[nH]cc(CC(=O)O)c2c1

- logKA (Albumin): 1.09
- logP [1]: 3.16
Structure (SMILES): O=C(O)Cc1c[nH]c2c(Cl)c(Cl)ccc12

- logKA (Albumin): 0.217
- logP [1]: 1.99
Structure (SMILES): Cc1ccc2[nH]cc(CC(=O)O)c2c1

- logKA (Albumin): 0.243
- logP [1]: 1.87
Structure (SMILES): Cn1cc(CC(=O)O)c2ccccc21

- logKA (Albumin): 0.863
- logP [1]: 2.41
Structure (SMILES): O=C(O)Cc1c[nH]c2cc(Cl)ccc12

- logKA (Albumin): 0.305
- logP [1]: 1.66
Structure (SMILES): O=C(O)Cc1c[nH]c2cccc(F)c12
